“Also recorded” adds a separate entry of the source.
Key:
[1] = molecular target: T1, crude rat lens AR (aldose reductase) (Rattus norvegicus, UniProt P07943); test: Rat lens AR activity; type: biochemical
T1 construct: the supernatant was used as crude rat lens AR; from tissue; host or cells: lens of 8-week-old Sprague-Dawley rats (supernatant of the homogenate)
Description: AR activity was measured as described previously. All animal procedures were approved by the Korea Institute of Oriental Medicine Institutional Animal Care Committee on animal care at our institute and conducted according to institutional guidelines. […] The homogenate was centrifuged at 14,000 rpm for 30 min, and the supernatant was used as crude rat lens AR. […] The reaction was initiated by the addition of NADPH at 37°C and stopped by the addition of 0.15 ml of 0.5 N HCl. Next, 0.5 ml of 6 M NaOH containing 10 mM imidazole was added, and the solution was heated at 60°C for 15 min to convert NADP to a fluorescent product.

AGEs formation = AGEs formation assay (BSA with fructose and glucose, fluorescence); type: biochemical; conditions: BSA with 0.2 M fructose and glucose, 37°C, 7 days
Description: AGEs formation assay was performed as previously described. Bovine serum albumin (BSA, 10 mg/ml, Sigma-Aldrich) in 50mM phosphate buffer (pH 7.4) with containing 0.02% sodium azide to prevent bacterial growth was added to 0.2 M fructose and glucose. The reaction mixture was then mixed with compounds or aminoguanidine (AG, Sigma-Aldrich). After incubating at 37°C for 7 days, the fluorescent reaction products were assayed on a spectrofluorometric detector (BIO-TEK, Synergy HT, Ex: 350 nm/Em: 450 nm). AGEs assay was performed in quadruplicate.

[2] = test system: TGF-β1 mRNA expression in mouse kidney mesangial cells (MMCs); test: High glucose-induced TGF-β1 mRNA expression in MMCs (RT-PCR); type: cell-based; conditions: high glucose 48 h, 10 μM compound
Description: Mouse kidney mesangial cells (SV40 MES13, MMC) were obtained from the American Type Culture Collection (#CRL-1927, Rockville, MD) and cultured in Dulbecco's modified Eagle's medium:F-12 (3:1) supplemented with 14 mM HEPES, penicillin 100 U/ml, streptomycin 100 μg/ml, and 5% fetal bovine serum. Cells were routinely grown to confluence in a humidified 37°C, 5% CO2 incubator.
Total cellular RNA was extracted with TRIzol (Invitrogen, Carlsbad, CA), quantified by measuring the absorbance at 260 nm, and stored at -80°C until analysis. The expression of TGF-β1 and GAPDH mRNAs was detected by RT-PCR analysis. The extracted RNA (1 μg) was subjected to a reverse transcriptase reaction with the Maxime RT premix (Intron, Daejeon, Korea) at 42°C for 60 min and 72°C for 10 min. Subsequently, semi-quantitative PCR was performed with Accupower® PCR premix (Intron, Daejeon, Korea). The primer sequences were as follows: mouse TGF-β1 (sense) 5’- TGAACCAAGGAGACGGAATACAGG -3’, (anti-sense) 5'- GCCATGAGGAGCAGGAAGGG -3’ and mouse GAPDH (sense) 5’- ACGGCAAATTCAACGGCACAG -3’, (anti-sense) 5’- AGACTCCACGACATACTCAGCAC -3’. Aliquots of PCR products were electrophoresed on 1.2% agarose gels and visualized after ethidium bromide staining.

[3] = test system: secreted TGF-β1 in mouse kidney mesangial cells (MMCs); test: High glucose-induced TGF-β1 secretion in MMCs (ELISA); type: cell-based; conditions: high glucose 48 h, 10 μM compound, ELISA of medium
Description: Mouse kidney mesangial cells (SV40 MES13, MMC) were obtained from the American Type Culture Collection (#CRL-1927, Rockville, MD) and cultured in Dulbecco's modified Eagle's medium:F-12 (3:1) supplemented with 14 mM HEPES, penicillin 100 U/ml, streptomycin 100 μg/ml, and 5% fetal bovine serum. Cells were routinely grown to confluence in a humidified 37°C, 5% CO2 incubator. The levels of TGF-β1 in the medium were determined as described previously. […] This medium was then harvested and TGF-β1 was activated by treatment with 1 N HCl (0.1 ml/0.5 ml of conditioned media) for 10 min at room temperature, then 0.1 ml 1.2 N NaOH/0.5 M HEPES was added. Quantikine mouse TGF-β1 ELISA (R&D systems, Minneapolis, MN) was performed according to the manufacturer’s protocol, and the TGF-β1 levels were normalized to those of total protein.

human RAGE (hRAGE) = molecular target: T2, human RAGE (hRAGE) (Homo sapiens, UniProt Q15109); test: Live cell-based AGE-BSA/RAGE binding in hRAGE-overexpressing cells; conditions: hRAGE-overexpressing MMCs, Alexa Fluor 488-labeled AGE-BSA, 6 h
T2 construct: expressed in transfected cells; host or cells: mouse kidney mesangial cells (MMCs) overexpressing hRAGE
Description: AGE-BSA/RAGE binding in the cells was determined as described previously. Briefly, Alexa 488 labeling of AGE-BSA was performed using the Alexa Fluor® 488 protein labeling kit (Molecular Probes, Eugene, OR). For the binding assay, human RAGE-overexpressing cells (1×10^4) were seeded onto a 96-well assay plate with a clear bottom lid and black plate (Corning, NY) and incubated with serum-free media for 24 h. Before binding, 3% BSA was added for 30 min to block non-specific binding. Cells were treated with 5 μg of Alexa Fluor 488-labeled AGE-BSA in a total volume of 100 μl serum-free medium and incubated in the dark for 6 h in a 5% CO2 humidified atmosphere at 37°C. Compounds were added after the addition of AGE-BSA-Alexa Fluor 488 to hRAGE-overexpressing cells. The non-specific binding of AGE-BSA-Alexa Fluor 488 to cell surface proteins other than hRAGE was compared by incubating cells with untreated cells (blank). After binding, 100 μl Opti-MEM were added to the washed plates, and the plates were then analyzed using a microtiter plate reader (Bio-Tek, Winooski, VT) with excitation and emission wavelengths of 485 and 528 nm, respectively.

T2 sequence (Q15109 23-404): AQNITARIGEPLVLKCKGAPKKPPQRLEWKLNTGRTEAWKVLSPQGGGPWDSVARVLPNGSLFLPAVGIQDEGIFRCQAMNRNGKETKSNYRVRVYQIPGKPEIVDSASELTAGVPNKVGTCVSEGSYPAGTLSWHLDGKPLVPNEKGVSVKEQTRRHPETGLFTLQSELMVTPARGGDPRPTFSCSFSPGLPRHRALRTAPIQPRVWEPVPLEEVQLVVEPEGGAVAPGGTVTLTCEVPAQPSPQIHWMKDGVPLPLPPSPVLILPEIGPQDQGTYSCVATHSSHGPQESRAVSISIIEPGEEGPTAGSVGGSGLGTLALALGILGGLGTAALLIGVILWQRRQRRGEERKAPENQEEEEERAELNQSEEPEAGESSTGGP

IC50 ([1]; DL-glyceraldehyde substrate)	IC50 (AGEs formation)	SMILES	AR inhibitory potency compared with positive control TMG [1]	further results
> 50 µM	56.4 ± 1.39 µM	O=c1c(O[C@@H]2O[C@H](CO)[C@@H](O)[C@H](O)[C@H]2O)c(-c2ccc(O)cc2)oc2cc(O[C@@H]3O[C@H](CO)[C@@H](O)[C@H](O)[C@H]3O)cc(O)c12 [Compound 2, Kaempferol 3,7-O-β-D-diglucopyranoside]		
> 50 µM	> 100 µM	O=c1c(O[C@@H]2O[C@H](CO)[C@@H](O)[C@H](O)[C@H]2O)c(-c2ccc(O[C@@H]3O[C@H](CO)[C@@H](O)[C@H](O)[C@H]3O)cc2)oc2cc(O[C@@H]3O[C@H](CO)[C@@H](O)[C@H](O)[C@H]3O)cc(O)c12 [Compound 1, Kaempferol 3,7,4’-O-β-D-triglucopyranoside]		
> 50 µM	7.5 ± 0.2 µM	COc1cc(/C=C/C(=O)O)ccc1O [Compound 8, ferulic acid]		Inhibition of high glucose-induced TGF-β1 mRNA expression [2]: greatest inhibitory effect; Inhibition of high glucose-induced TGF-β1 mRNA expression ([2]; listed as ferulic acid): significantly reduced; also recorded: reduces; Inhibition of high glucose-induced TGF-β1 secretion [3]: significantly reduced; also recorded: reduces
5.07 ± 0.06 µM		O=C(O)CC1(CC(=O)O)CCCC1 [Tetramethyleneglutaric acid, 3,3-tetramethyleneglutaric acid, reference compound]		AR IC50 ([1]; DL-glyceraldehyde substrate): 0.94 ± 0.01 µg/mL
1.1 ± 0.63 µM	36 ± 1.4 µM	O=c1c(O)c(-c2ccc(O)cc2)oc2cc(O)cc(O)c12 [Compound 5, kaempferol]	significantly more potent	
9.77 ± 0.33 µM	59.7 ± 1.22 µM	O=c1c(O[C@@H]2O[C@H](CO)[C@@H](O)[C@H](O)[C@H]2O)c(-c2ccc(O[C@@H]3O[C@H](CO)[C@@H](O)[C@H](O)[C@H]3O)cc2)oc2cc(O)cc(O)c12 [Compound 3, kaempferol 3,4’-O-β-D-diglucopyranoside]		

SMILES	IC50 ([1]; DL-glyceraldehyde substrate)	IC50 (AGEs formation)	AR inhibitory potency compared with positive control TMG [1]	further results
N=C(N)NN [Aminoguanidine, aminoguanidine, reference compound]		1030 ± 70 µM		AGEs IC50 (AGEs formation): 76.47 ± 4.81 µg/mL
O=c1c(O)c(-c2ccc(O)c(O)c2)oc2cc(O)cc(O)c12 [Compound 6, quercetin]		27.1 ± 0.11 µM	significantly more potent	
C[C@@H]1O[C@@H](Oc2c(-c3ccc(O)c(O)c3)oc3cc(O)cc(O)c3c2=O)[C@H](O)[C@H](O)[C@H]1O [Compound 4, quercitrin]	0.17 ± 0.1 µM	4.2 ± 0.04 µM	significantly more potent	Inhibition of AGE-RAGE binding (human RAGE (hRAGE)): significantly inhibited; Inhibition of AGE-RAGE binding (human RAGE (hRAGE); listed as quercitrin): disrupted AGE-RAGE binding in a concentration-dependent manner
O=C(O)C=Cc1ccc(O)cc1 [Compound 7, 4-hydroxycinnamic acid]	> 50 µM	9.92 ± 0.11 µM		

Reference: paper PMC4015874, “Effects of Allium victorialis leaf extracts and its single compounds on aldose reductase, advanced glycation end products and TGF-β1 expression in mesangial cells” (BMC Complementary and Alternative Medicine, 2013)
